From patent publication US20240360082A1, “SUBSTITUTED PYRIDONE COMPOUNDS USEFUL TO TREAT ORTH[…]” (priority 2021, published 2024)
Read-outs that look alike come from different tables or passages of the source.

Target: influenza A virus minigenome (PB2, PB1, PA, NP proteins) (UniProt P04665)
Format: cell-based

Sequence of influenza A virus minigenome (PB2, PB1, PA, NP proteins) (P04665 whole entry): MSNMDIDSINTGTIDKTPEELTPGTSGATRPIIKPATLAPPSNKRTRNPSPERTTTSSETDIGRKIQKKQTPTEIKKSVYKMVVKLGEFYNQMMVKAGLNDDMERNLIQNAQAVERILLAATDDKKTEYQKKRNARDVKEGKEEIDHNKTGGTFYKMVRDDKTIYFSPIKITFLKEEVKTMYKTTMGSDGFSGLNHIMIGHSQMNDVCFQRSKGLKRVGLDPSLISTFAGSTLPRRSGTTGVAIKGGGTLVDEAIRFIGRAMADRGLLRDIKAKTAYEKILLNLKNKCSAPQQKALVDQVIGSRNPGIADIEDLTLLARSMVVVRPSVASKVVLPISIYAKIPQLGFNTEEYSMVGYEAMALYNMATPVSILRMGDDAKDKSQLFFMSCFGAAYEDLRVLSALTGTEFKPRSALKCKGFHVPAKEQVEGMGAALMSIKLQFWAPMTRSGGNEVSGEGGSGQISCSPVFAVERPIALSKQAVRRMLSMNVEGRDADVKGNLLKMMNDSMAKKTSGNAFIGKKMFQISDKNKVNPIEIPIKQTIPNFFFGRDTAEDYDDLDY

NC(=O)c1cc(-c2ccc(OCC3CN(C4COC4)CCCO3)cc2)c(C(F)(F)F)[nH]c1=O (centres unmarked) [Example 196, 5-(4-((4-(oxetan-3-yl)-1,4-oxazepan-2-yl)methoxy)phenyl)-2-oxo-6-(trifluoromethyl)-1,2-dihydropyridine-3-carboxamide]
IC50 (read-out: RNP_Hubei B): 25 to 50 µM

CC(C)CS(=O)(=O)N1CCCOC(COc2ccc(-c3cc(C(N)=O)c(=O)[nH]c3C(F)(F)F)cc2)C1 (centres unmarked) [Example 198, 5-(4-((4-(isobutylsulfonyl)-1,4-oxazepan-2-yl)methoxy)phenyl)-2-oxo-6-(trifluoromethyl)-1,2-dihydropyridine-3-carboxamide]
IC50 (read-out: RNP_Hubei B): 25 to 50 µM

CN1C(COc2ccc(-c3cc(C(N)=O)c(=O)[nH]c3C(F)(F)F)cc2)COCC12COC2 (centres unmarked) [Example 206, 5-(4-((5-methyl-2,8-dioxa-5-azaspiro[3.5]nonan-6-yl)methoxy)phenyl)-2-oxo-6-(trifluoromethyl)-1,2-dihydropyridine-3-carboxamide]
IC50 (read-out: RNP_Hubei B): 25 to 50 µM

CN1C(COc2ccc(-c3cc(C(N)=O)c(=O)[nH]c3C(F)(F)F)cc2)COCC1(C)C (centres unmarked) [Example 207, 2-oxo-6-(trifluoromethyl)-5-(4-((4,5,5-trimethylmorpholin-3-yl)methoxy)phenyl)-1,2-dihydropyridine-3-carboxamide]
IC50 (read-out: RNP_Hubei B): 5 to 10 µM

C[C@H]1COCC(COc2ccc(-c3cc(C(N)=O)c(=O)[nH]c3C(F)(F)F)cc2)N1C (stereo partly drawn) [Example 208, 5-(4-(((5S)-4,5-dimethylmorpholin-3-yl)methoxy)phenyl)-2-oxo-6-(trifluoromethyl)-1,2-dihydropyridine-3-carboxamide]
IC50 (read-out: RNP_Hubei B): 5 to 10 µM

CN1[C@H](COc2ccc(-c3cc(C(N)=O)c(=O)[nH]c3C(F)(F)F)cc2)COC[C@@H]1C1CC1 [Example 209, 5-(4-(((3S,5S)-5-cyclopropyl-4-methylmorpholin-3-yl)methoxy)phenyl)-2-oxo-6-(trifluoromethyl)-1,2-dihydropyridine-3-carboxamide]
IC50 (read-out: RNP_ Hubei B IC50): 5 to 10 µM

CN1[C@@H](COc2ccc(-c3cc(C(N)=O)c(=O)[nH]c3C(F)(F)F)cc2)COC[C@@H]1C1CC1 [Example 210, 5-(4-(((3R,5S)-5-cyclopropyl-4-methylmorpholin-3-yl)methoxy)phenyl)-2-oxo-6-(trifluoromethyl)-1,2-dihydropyridine-3-carboxamide]
IC50 (read-out: RNP_ Hubei B IC50): 5 to 10 µM

CC(C)[C@H]1COCC(COc2ccc(-c3cc(C(N)=O)c(=O)[nH]c3C(F)(F)F)cc2)N1C (stereo partly drawn) [Example 211, 5-(4-(((5S)-5-isopropyl-4-methylmorpholin-3-yl)methoxy)phenyl)-2-oxo-6-(trifluoromethyl)-1,2-dihydropyridine-3-carboxamide]
IC50 (read-out: RNP_ Hubei B IC50): 1 to 5 µM

CCn1nccc1COc1ccc(-c2cc(C(N)=O)c(=O)[nH]c2C(F)(F)F)cc1 [Example 217, 5-(4-((1-ethyl-1H-pyrazol-5-yl)methoxy)phenyl)-2-oxo-6-(trifluoromethyl)-1,2-dihydropyridine-3-carboxamide]
IC50 (read-out: RNP_ Hubei B IC50): 25 to 50 µM

COCCn1cc(COc2ccc(-c3cc(C(N)=O)c(=O)[nH]c3C(F)(F)F)cc2)cn1 [Example 218, 5-(4-((1-(2-methoxyethyl)-1H-pyrazol-4-yl)methoxy)phenyl)-2-oxo-6-(trifluoromethyl)-1,2-dihydropyridine-3-carboxamide]
IC50 (read-out: RNP_ Hubei B IC50): 25 to 50 µM

COCCn1nccc1COc1ccc(-c2cc(C(N)=O)c(=O)[nH]c2C(F)(F)F)cc1 [Example 219, 5-(4-((1-(2-methoxyethyl)-1H-pyrazol-5-yl)methoxy)phenyl)-2-oxo-6-(trifluoromethyl)-1,2-dihydropyridine-3-carboxamide]
IC50 (read-out: RNP_ Hubei B IC50): 25 to 50 µM

Cn1cc(COc2ccc(-c3cc(C(N)=O)c(=O)[nH]c3C(F)(F)F)cc2)cn1 [Example 220, 5-(4-((1-methyl-1H-pyrazol-4-yl)methoxy)phenyl)-2-oxo-6-(trifluoromethyl)-1,2-dihydropyridine-3-carboxamide]
IC50 (read-out: RNP_ Hubei B IC50): 25 to 50 µM

NC(=O)c1cc(-c2ccc(OCc3cnn(CC4CC4)c3)cc2)c(C(F)(F)F)[nH]c1=O [Example 221, 5-(4-((1-(cyclopropylmethyl)-1H-pyrazol-4-yl)methoxy)phenyl)-2-oxo-6-(trifluoromethyl)-1,2-dihydropyridine-3-carboxamide]
IC50 (read-out: RNP_ Hubei B IC50): 10 to 25 µM

CCn1cc(COc2ccc(-c3cc(C(N)=O)c(=O)[nH]c3C(F)(F)F)cc2)cn1 [Example 222, 5-(4-((1-ethyl-1H-pyrazol-4-yl)methoxy)phenyl)-2-oxo-6-(trifluoromethyl)-1,2-dihydropyridine-3-carboxamide]
IC50 (read-out: RNP_ Hubei B IC50): 25 to 50 µM

NC(=O)c1cc(-c2ccc(OCc3ccon3)cc2)c(C(F)(F)F)[nH]c1=O [Example 223, 5-(4-(isoxazol-3-ylmethoxy)phenyl)-2-oxo-6-(trifluoromethyl)-1,2-dihydropyridine-3-carboxamide]
IC50 (read-out: RNP_ Hubei B IC50): 25 to 50 µM

Cc1cc(COc2ccc(-c3cc(C(N)=O)c(=O)[nH]c3C(F)(F)F)cc2)no1 [Example 224, 5-(4-((5-methylisoxazol-3-yl)methoxy)phenyl)-2-oxo-6-(trifluoromethyl)-1,2-dihydropyridine-3-carboxamide]
IC50 (read-out: RNP_ Hubei B IC50): 25 to 50 µM

NC(=O)c1cc(-c2ccc(OCC3CCO3)cc2)c(C(F)(F)F)[nH]c1=O (centres unmarked) [Example 225, 5-(4-(oxetan-2-ylmethoxy)phenyl)-2-oxo-6-(trifluoromethyl)-1,2-dihydropyridine-3-carboxamide]
IC50 (read-out: RNP_ Hubei B IC50): 25 to 50 µM

NC(=O)c1cc(-c2ccc(OCC3(F)COC3)cc2)c(C(F)(F)F)[nH]c1=O [Example 226, 5-(4-((3-fluorooxetan-3-yl)methoxy)phenyl)-2-oxo-6-(trifluoromethyl)-1,2-dihydropyridine-3-carboxamide]
IC50 (read-out: RNP_ Hubei B IC50): 25 to 50 µM

CC1(COc2ccc(-c3cc(C(N)=O)c(=O)[nH]c3C(F)(F)F)cc2)COC1 [Example 227]
IC50 (read-out: RNP_ Hubei B IC50): 25 to 50 µM

CCC1(COc2ccc(-c3cc(C(N)=O)c(=O)[nH]c3C(F)(F)F)cc2)COC1 [Example 228]
IC50 (read-out: RNP_ Hubei B IC50): 10 to 25 µM

N#CCC1(COc2ccc(-c3cc(C(N)=O)c(=O)[nH]c3C(F)(F)F)cc2)COC1 [Example 229, 5-(4-((3-(cyanomethyl)oxetan-3-yl)methoxy)phenyl)-2-oxo-6-(trifluoromethyl)-1,2-dihydropyridine-3-carboxamide]
IC50 (read-out: RNP_ Hubei B IC50): 25 to 50 µM

NC(=O)c1cc(-c2ccc(OCC3CCOC3)cc2)c(C(F)(F)F)[nH]c1=O (centres unmarked) [Example 231, 2-oxo-5-(4-((tetrahydrofuran-3-yl)methoxy)phenyl)-6-(trifluoromethyl)-1,2-dihydropyridine-3-carboxamide]
IC50 (read-out: RNP_ Hubei B IC50): 25 to 50 µM

NC(=O)c1cc(-c2ccc(OCC3CCCO3)cc2)c(C(F)(F)F)[nH]c1=O (centres unmarked) [Example 232, 2-oxo-5-(4-((tetrahydrofuran-2-yl)methoxy)phenyl)-6-(trifluoromethyl)-1,2-dihydropyridine-3-carboxamide]
IC50 (read-out: RNP_ Hubei B IC50): 10 to 25 µM

CN1CC(COc2ccc(-c3cc(C(N)=O)c(=O)[nH]c3C(F)(F)F)cc2)OC1=O (centres unmarked) [Example 233, 5-(4-((3-methyl-2-oxooxazolidin-5-yl)methoxy)phenyl)-2-oxo-6-(trifluoromethyl)-1,2-dihydropyridine-3-carboxamide]
IC50 (read-out: RNP_ Hubei B IC50): 25 to 50 µM

CCN1CC(COc2ccc(-c3cc(C(N)=O)c(=O)[nH]c3C(F)(F)F)cc2)OC1=O (centres unmarked) [Example 234, 5-(4-((3-ethyl-2-oxooxazolidin-5-yl)methoxy)phenyl)-2-oxo-6-(trifluoromethyl)-1,2-dihydropyridine-3-carboxamide]
IC50 (read-out: RNP_ Hubei B IC50): 25 to 50 µM

CN1C(=O)OCC1COc1ccc(-c2cc(C(N)=O)c(=O)[nH]c2C(F)(F)F)cc1 (centres unmarked) [Example 235, 5-(4-((3-methyl-2-oxooxazolidin-4-yl)methoxy)phenyl)-2-oxo-6-(trifluoromethyl)-1,2-dihydropyridine-3-carboxamide]
IC50 (read-out: RNP_ Hubei B IC50): 25 to 50 µM

NC(=O)c1cc(-c2ccc(OCC3CCCCO3)cc2)c(C(F)(F)F)[nH]c1=O (centres unmarked) [Example 236, 2-oxo-5-(4-((tetrahydro-2H-pyran-2-yl)methoxy)phenyl)-6-(trifluoromethyl)-1,2-dihydropyridine-3-carboxamide]
IC50 (read-out: RNP_ Hubei B IC50): 5 to 10 µM

NC(=O)c1cc(-c2ccc(OCC3COCCO3)c(F)c2)c(C(F)(F)F)[nH]c1=O (centres unmarked) [Example 239, 5-(4-((1,4-dioxan-2-yl)methoxy)-3-fluorophenyl)-2-oxo-6-(trifluoromethyl)-1,2-dihydropyridine-3-carboxamide]
IC50 (read-out: RNP_ Hubei B IC50): 10 to 25 µM

NC(=O)c1cc(-c2ccc(OCC3COCCO3)c(C3CC3)c2)c(C(F)(F)F)[nH]c1=O (centres unmarked) [Example 243, 5-(4-((1,4-dioxan-2-yl)methoxy)-3-cyclopropylphenyl)-2-oxo-6-(trifluoromethyl)-1,2-dihydropyridine-3-carboxamide]
IC50 (read-out: RNP_ Hubei B IC50): 1 to 5 µM

CN1CCOCC1COc1ccc(-c2cc(C(N)=O)c(=O)[nH]c2C(F)(F)F)cc1 (centres unmarked) [Example 247, 5-(4-((4-methylmorpholin-3-yl)methoxy)phenyl)-2-oxo-6-(trifluoromethyl)-1,2-dihydropyridine-3-carboxamide]
IC50 (read-out: RNP_ Hubei B IC50): 25 to 50 µM

NC(=O)c1cc(-c2ccc(OCC3COCCN3C3CC3)cc2)c(C(F)(F)F)[nH]c1=O (centres unmarked) [Example 248, 5-(4-((4-cyclopropylmorpholin-3-yl)methoxy)phenyl)-2-oxo-6-(trifluoromethyl)-1,2-dihydropyridine-3-carboxamide]
IC50 (read-out: RNP_ Hubei B IC50): 5 to 10 µM

CCN1CCOCC1COc1ccc(-c2cc(C(N)=O)c(=O)[nH]c2C(F)(F)F)cc1 (centres unmarked) [Example 249, 5-(4-((4-ethylmorpholin-3-yl)methoxy)phenyl)-2-oxo-6-(trifluoromethyl)-1,2-dihydropyridine-3-carboxamide]
IC50 (read-out: RNP_ Hubei B IC50): 5 to 10 µM

NC(=O)c1cc(-c2ccc(OCC3COCC(=O)N3)cc2)c(C(F)(F)F)[nH]c1=O (centres unmarked) [Example 250, 2-oxo-5-(4-((5-oxomorpholin-3-yl)methoxy)phenyl)-6-(trifluoromethyl)-1,2-dihydropyridine-3-carboxamide]
IC50 (read-out: RNP_ Hubei B IC50): 25 to 50 µM

COCCOc1ccc(-c2cc(C(N)=O)c(=O)[nH]c2C(F)(F)F)cc1 [Example 254, 5-(4-(2-methoxyethoxy)phenyl)-2-oxo-6-(trifluoromethyl)-1,2-dihydropyridine-3-carboxamide]
IC50 (read-out: RNP_ Hubei B IC50): 25 to 50 µM

NC(=O)c1cc(-c2ccc(OCCN3CCOC3=O)cc2)c(C(F)(F)F)[nH]c1=O [Example 257, 2-oxo-5-(4-(2-(2-oxooxazolidin-3-yl)ethoxy)phenyl)-6-(trifluoromethyl)-1,2-dihydropyridine-3-carboxamide]
IC50 (read-out: RNP_ Hubei B IC50): 25 to 50 µM
